flash point [°C] | SMILES
52 | CCCCCCC(=O)OC [methylheptanoate]
78 | CCCCCC1CCCC1=O (stereo unspecified) [2-pentylcyclopentanone]
38 | CC(=O)CC(C)=O [2,4-pentanedione]
31 | CC(C)C(C)C(C)C(C)C (stereo unspecified) [2,3,4,5-tetramethylhexane]
16 | C#CCCCCCC [1-octyne]
15 | CCC(C)CCC(C)C (stereo unspecified) [2,5-dimethylheptane]
103 | CCCc1ccc(N)cc1 [4-propylaniline]
70 | N#Cc1ccccc1 [benzonitrile]
29 | CC=C1CC2C=CC1C2 (stereo unspecified) [5-ethylidene-2-norbornene]
14 | CN1CCOCC1 [N-methylmorpholine]
3 | CCC(C)(CC)CC [3-ethyl-3-methylpentane]
36 | CCCCCC(C)C(C)C (stereo unspecified) [2,3-dimethyloctane]
-28 | CC(C)OC(C)C [diisopropylether]
51 | CCCCCCCC=O [octanal]
31 | CCC(C)CC(C)(C)CC (stereo unspecified) [3,3,5-trimethylheptane]
85 | CCCCCCCCC(C)O (stereo unspecified) [2-decanol]
36 | CC(=O)CCC(C)C [5-methyl-2-hexanone]
35 | CCCCC(=O)OCC [ethylpentanoate]

flash point [°C] | SMILES
6 | CC(C)(C)CC(C)(C)C [2,2,4,4-tetramethylpentane]
50 | Cc1ccccc1C(C)C [o-isopropyltoluene]
-47 | COC(C)C [isopropylmethylether]
108 | OCCO [1,2-ethanediol]
-24 | CC(C)C(C)(C)C [2,2,3-trimethylbutane]
-17 | C=CC(CC)CC [3-ethyl-1-pentene]
102 | CCCCCCCCCCCC=O [dodecanal]
26 | CCCCCOC=O [pentylformate]
102 | CCCCc1ccc(N)cc1 [4-butylaniline]
135 | CCOC(=O)C=Cc1ccccc1 [ethylcinnamate]
35 | CCCC(CCC)CCC [4-propylheptane]
20 | CCC(=O)OC(C)(C)C [tert-butylpropanoate]
93 | CCCc1ccccc1O [2-propylphenol]
33 | CC1(C)CCCC1=O [2,2-dimethylcyclopentanone]
39 | CCCCCC(C)=O [2-heptanone]
5 | CCCC(C)C(C)C (stereo unspecified) [2,3-dimethylhexane]
-1 | CCCC(C)(C)CC [3,3-dimethylhexane]

SMILES | flash point [°C]
C=Cc1ccc(F)cc1 [4-fluorostyrene] | 35
CCCCCCCBr [1-bromoheptane] | 61
C=COC=C [divinylether] | -47
CC(Cl)CCl (stereo unspecified) [1,2-dichloropropane] | 13
Brc1ccccc1 [bromobenzene] | 51
CCCCOCCO [2-butoxyethanol] | 62
CC1(C)CC(=O)CC(C)(C)C1 [3,3,5,5-tetramethylcyclohexanone] | 73
Nc1ccccc1 [aniline] | 70
CC(C)COC(=O)c1ccccc1C(=O)OCC(C)C [diisobutylphthalate] | 185
C/C=C/C=O [trans-2-butenal] | 9

Remark: another data set of the same source

flash point [°C] | SMILES
74.00 | COc1ccccc1O [2-methoxyphenol]
113.00 | O=C(O)CS [2-sulfanylacetic acid]
9.00 | Cc1cccc(F)c1 [1-fluoro-3-methylbenzene]
39.00 | C=CC(=C)CCC=C(C)C [7-methyl-3-methylideneocta-1,6-diene]
54.00 | CCCC(C)CO (stereo unspecified) [2-methylpentan-1-ol]
192.00 | C=CCOC(Cn1ccnc1)c1ccc(Cl)cc1Cl (stereo unspecified) [1-[2-(2,4-dichlorophenyl)-2-prop-2-enoxyethyl]imidazole]
29.00 | CCCCCCN [hexan-1-amine]
16.00 | CN(C)CCCN [N',N'-dimethylpropane-1,3-diamine]
110.00 | Oc1cccc(Br)c1 [3-bromophenol]
100.00 | C=C(C)C1CCC2=CC(=O)CC(C)C2(C)C1 (stereo unspecified)
37.00 | CCCCCCOC(C)=O [hexyl acetate]
-14.00 | C1CCOC1 [oxolane]
79.00 | CC1=CCC(O)(C(C)C)CC1 (stereo unspecified) [4-methyl-1-propan-2-ylcyclohex-3-en-1-ol]
48.00 | CC1CCCCC1=O (stereo unspecified) [2-methylcyclohexan-1-one]
-15.00 | Fc1ccccc1 [fluorobenzene]
111.00 | OCCO [ethane-1,2-diol]
88.00 | CC=CC(=O)O [but-2-enoic acid]
135.00 | CCCCCCCCCCCCc1ccccc1 [dodecylbenzene]
154.00 | NC=O [formamide]

flash point [°C] | SMILES
30.00 | CCC(O)CC [pentan-3-ol]
71.00 | CCCCOC(=O)C(C)O (stereo unspecified) [butyl 2-hydroxypropanoate]
-12.00 | CC(C)CC(C)(C)C [2,2,4-trimethylpentane]
-76.00 | C=C(C)C [2-methylprop-1-ene]
74.00 | Cc1cccc(C)c1O [2,6-dimethylphenol]
78.00 | C=CC(C)(O)CCC=C(C)C (stereo unspecified) [3,7-dimethylocta-1,6-dien-3-ol]
59.00 | CCOCCC(=O)OCC [ethyl 3-ethoxypropanoate]
97.00 | CCCCC(CC)COCC1CO1 (stereo unspecified) [2-(2-ethylhexoxymethyl)oxirane]
19.00 | CCC(=O)C(C)=O [pentane-2,3-dione]
138.00 | COC(=O)c1cccc(C(=O)OC)c1 [dimethyl benzene-1,3-dicarboxylate]
32.00 | CCCC(C)OC(C)=O (stereo unspecified) [pentan-2-yl acetate]
93.00 | CCCOC(=O)c1ccc(C(=O)OCCC)nc1 [dipropyl pyridine-2,5-dicarboxylate]
89.00 | C=C(C)[C@H]1CC=C(C)C(=O)C1 [(5S)-2-methyl-5-prop-1-en-2-ylcyclohex-2-en-1-one]
80.00 | CC(=O)Oc1ccccc1 [phenyl acetate]
150.00 | CCC(C(c1ccc(Cl)cc1)c1ccc(Cl)cc1)[N+](=O)[O-] (stereo unspecified) [1-chloro-4-[1-(4-chlorophenyl)-2-nitrobutyl]benzene]
50.00 | CCC(C)CO (stereo unspecified) [2-methylbutan-1-ol]
54.00 | CCC(=O)O [propanoic acid]
52.00 | Cc1cccc(Cl)c1 [1-chloro-3-methylbenzene]
102.00 | CC(C)=CCCC(C)=CC=O [3,7-dimethylocta-2,6-dienal]

SMILES | flash point [°C]
c1ccc(P(c2ccccc2)c2ccccc2)cc1 [triphenylphosphane] | 180.00
O=[N+]([O-])c1cc(Cl)cc(Cl)c1 [1,3-dichloro-5-nitrobenzene] | 140.00
CCCCOCCOCCOCCO [2-[2-(2-butoxyethoxy)ethoxy]ethanol] | 143.00
N#CCCl [2-chloroacetonitrile] | 48.00
[CH3][Hg][CH3] [dimethylmercury] | 5.00
CCCC(=O)Cl [butanoyl chloride] | 22.00
Nc1ccc([N+](=O)[O-])cc1Cl [2-chloro-4-nitroaniline] | 205.00
CS [methanethiol] | -18.00
CC1CO1 (stereo unspecified) [2-methyloxirane] | -37.00
COc1ccc2c3c1OC1C(O)C=CC4C(C2)N(C)CCC341 (stereo unspecified) | 75.00
CCCCOCCOCCOCc1cc2c(cc1CCC)OCO2 [5-[2-(2-butoxyethoxy)ethoxymethyl]-6-propyl-1,3-benzodioxole] | 171.00
CCCCO.CCCCO.CCCCO.CCCCO.[Ti] [butan-1-ol;titanium] | 77.00
C=CC(=O)OCCCCCC(C)C [6-methylheptyl prop-2-enoate] | 91.00
CC(C)[C@H](C(=O)O[C@H](C#N)c1cccc(Oc2ccccc2)c1)c1ccc(Cl)cc1 | 256.00
COC(=O)/C=C(\C)OP(=O)(OC)OC [methyl (E)-3-dimethoxyphosphoryloxybut-2-enoate] | 79.00
C=CC(=C)C [2-methylbuta-1,3-diene] | -54.00
CCCCOCCOCCOC(C)=O [2-(2-butoxyethoxy)ethyl acetate] | 116.00
Cc1cccc([N+](=O)[O-])c1 [1-methyl-3-nitrobenzene] | 106.00
Cc1cccc(C)c1[N+](=O)[O-] [1,3-dimethyl-2-nitrobenzene] | 88.00
O=Cc1ccccc1 [benzaldehyde] | 64.00
Cc1ccc(N)cc1N [4-methylbenzene-1,3-diamine] | 149.00
O=P1(N(CCCl)CCCl)NCCCO1 (stereo unspecified) | 113.00
C=CC(C)=O [but-3-en-2-one] | -7.00
C=COCCCl [1-chloro-2-ethenoxyethane] | 16.00
CCCOP(=S)(OCCC)OP(=S)(OCCC)OCCC | 149.00
CC1=C(C(=O)Nc2ccccc2)S(=O)(=O)CCO1 | 219.00
Nc1ccc([N+](=O)[O-])cc1 [4-nitroaniline] | 199.00
OCCN(CCO)CCO [2-[bis(2-hydroxyethyl)amino]ethanol] | 185.00
